Laboratory results from patent publication US12152016B2, “Aryl hydrocarbon receptor modulators and uses thereof” (Beth Israel Deaconess Medical Center, Inc., priority 2018, dated 2024).
pEC50: −log10 of the molar value. Entries after “also recorded” stand apart in the source; their conditions may differ.

What was measured:
[1] = biological target: T1, AhR (Homo sapiens, UniProt P35869); assay: AhR nuclear translocation assay, human HepG2; format: cell-based; details: human HepG2, 10 μM, 90 minutes
T1 construct: endogenous in cells; host or cells: HepG2 (human liver cancer cell line)
T1 sequence (P35869 11-848): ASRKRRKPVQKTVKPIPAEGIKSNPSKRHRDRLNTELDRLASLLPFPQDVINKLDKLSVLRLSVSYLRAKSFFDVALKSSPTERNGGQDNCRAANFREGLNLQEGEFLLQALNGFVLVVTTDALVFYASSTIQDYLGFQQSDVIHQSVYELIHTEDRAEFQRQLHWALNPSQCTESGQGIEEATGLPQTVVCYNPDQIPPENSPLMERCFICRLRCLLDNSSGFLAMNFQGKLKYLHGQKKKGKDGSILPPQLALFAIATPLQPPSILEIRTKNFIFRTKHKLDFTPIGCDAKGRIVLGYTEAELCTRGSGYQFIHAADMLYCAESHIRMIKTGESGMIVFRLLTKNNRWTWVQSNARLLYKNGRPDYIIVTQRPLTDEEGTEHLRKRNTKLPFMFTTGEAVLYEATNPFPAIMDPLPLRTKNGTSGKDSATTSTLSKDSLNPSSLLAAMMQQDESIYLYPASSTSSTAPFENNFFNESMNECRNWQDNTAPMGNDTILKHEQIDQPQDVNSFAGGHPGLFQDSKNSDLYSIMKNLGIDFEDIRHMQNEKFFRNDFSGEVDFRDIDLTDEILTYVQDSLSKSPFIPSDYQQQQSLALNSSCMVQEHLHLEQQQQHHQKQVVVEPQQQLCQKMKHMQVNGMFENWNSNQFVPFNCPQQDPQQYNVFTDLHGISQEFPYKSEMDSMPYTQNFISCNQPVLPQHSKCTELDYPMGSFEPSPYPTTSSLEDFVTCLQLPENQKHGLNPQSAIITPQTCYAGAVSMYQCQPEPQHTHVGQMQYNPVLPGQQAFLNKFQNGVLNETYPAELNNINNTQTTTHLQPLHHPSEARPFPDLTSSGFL
Description: Mouse Hepa-1c1c7 or human HepG2 cells were seeded in 8 well chamber slides followed by 24 hours incubation in tryptophan deficient media (HBSS with Ca^2+ and Mg^2+, 10% heat inactivated FBS, 1× non-essential amino acids, 1× sodium pyruvate, 4.5 g/L glucose). Cells were treated with vehicle control (DMSO) or 10 μM ITE, compound 108, or compound 109 for 90 minutes in tryptophan deficient media. Following treatment, cells were fixed in 4% formaldehyde and processed according to standard immunofluorescence staining protocol. Primary anti-AhR antibody was applied at 1:100 dilution (Enzo, BML-SA210) and Alexa488 conjugated secondary antibody was applied at 1:500 dilution (Cell Signaling, 4412S). Actin was stained using Alexa 568 conjugated Phalloidin (Fisher). Samples were mounted in anti-fade mounting medium supplemented with DAPI for nuclear staining and imaged with confocal microscopy (Leica SP5×MP, 63× oil lens).

[2] = biological target: T2, aryl hydrocarbon receptor (AHR) (Homo sapiens, UniProt P35869); assay: XRE-driven luciferase reporter assay, human HepG2
T2 sequence (P35869 11-848): T1 sequence (P35869 11-848)
Description: The Human HepG2 cell line is a human liver cancer cell line, and provide a relevant in vitro AHR activity model. These Hep2G cells have been modified to stably express an AHR-responsive (XRE) firefly luciferase reporter gene to give Hep2G-XRE cells. The expression of luciferase should primarily reflect AHR-dependent transcription controlled by XRE.
Transfected cells were treated with AhR agonist (10^−5-10^−12) for 4.5 h in full medium. Cells were lysed and luciferase was activated using the Luciferase Assay System (Promega). Luminescence signals were measured with a FluroStar Omega microplate reader. Luminescence signals of compound treated groups were normalized to vehicle (DMSO) treated control and plotted as concentration dependent fold changes.

[3] = test system: DSS induced colitis; assay: DSS induced colitis in mice; format: in vivo, C57BL/6 mice
Description: C57BL/6 (8-10 week, male) mice were administered drinking water supplemented with 3% (wt/vol) dextran sodium sulfate (DSS; MP Biomedicals) for 7 days followed by a 13 day recovery period with unsupplemented drinking water. Compound 109 or compound 108 were suspended in vehicle (1% HPMC and 1% polysorbate 80 in water) and given daily by oral gavage (1 ug/mouse in 100 uL), starting at day 0. Control mice were administered 100 μL vehicle. Body weight and disease activity index (DAI) were recorded daily. DAI was determined by combining scores of weight loss, stool consistency, blood in stool, activity, and appearance.^1 Scores were determined as follows: change in weight (0: <1%, 1: 1-10%, 2: 10-18%, 3: 18-20%); stool consistency (0: normal, 1: loose stools, 2: diarrhea); stool blood (0: negative, 1: trace blood, 2: bloody stool, 3: gross bleeding), activity (0: normal, 1: low activity, 2: hiding, 3: no response to gentle stimuli) and appearance (0: normal, 1: rigor, 2: hunched posture). On day 7 and day 11, mice were euthanized and colon were removed for length measurement, histology, RNA isolation, and lamina propria mononuclear cell (LPMC) extraction as detailed below.
Dissected colon were cut longitudinally and rolled using the Swiss roll method with the distal side in the center.^2,3 Colons were fixed overnight in 10% neutral buffered formalin, processed for paraffin embedding and sectioned at 5 μm thickness. To visualize and quantify the inflammatory response and crypt loss, hematoxylin and eosin staining (H&E) was performed. Briefly, sections were cleared with xylene, rehydrated through alcohol gradient, stained by hematoxylin, washed by acid and ammonium alcohol, rinsed in water and exposed to Eosin followed by dehydrating through graded alcohols and cleared in xylene. All sections were mounted using Permount (Fisher Scientific) and visualized using a BX41 microscope (Olympus). For histological scoring, 3 transverse sections of Swiss roll were chosen and 9 (100×) images were captured for each section. Images were analyzed for inflammation and crypt structure and scored by a blind observer as follows: inflammation (0: rare inflammatory cells in the lamina propria; 1: increased numbers of inflammatory cells in the lamina propria; 2: confluence of inflammatory cells extending in to the submucosa; 3: transmural extension of the inflammatory infiltrate.); crypt loss (0: none; 1: basal 1/3 damaged; 2: basal 2/3 damaged; 3: only surface epithelium intact; 4: entire crypt and epithelium lost). Inflammation and crypt loss were scored separately and multiplied by a factor of 1-4 to adjust for impacted area of tissue section (1: 0-25%; 2: 25.1-50% affected; 3: 50.1-75% affected; 4: >75% affected).^1,4 To examine goblet cell number, sections were stained by a commercial periodic acid-Schiff (PAS) and Alcian blue kit (Fisher Scientific). For quantification, 3 transverse sections of Swiss roll were chosen per colon and 5 random images at 200x were taken per section in the distal region of the colon. Goblet cell number was counted per image and normalized to colon length by a blind observer using image J.^5
Colonic epithelium and lamina propria cells were isolated as previously described.^6,7 Briefly, colons were dissected and washed with HBSS to remove fecal contents. Colon were opened longitudinally and cut into 2 cm segments. […]

In the case of `N#Cc1cccc(C(=O)c2c[nH]c3ccccc23)n1` [Compound 108, 6-(1H-indole-3-carbonyl)pyridine-2-carbonitrile], the AhR nuclear translocation [1] was “localized in the nucleus; also recorded: rapid nuclear enrichment of AhR”, the “XRE luciferase Emax (fold)” value ([2]; Human HepG2, fold over vehicle) was 74 fold and the pEC50 ([2]; XRE luciferase EC50, Human HepG2, least square curve fitting, >10,000 = does not reach 50% of Emax of ITE at 10 μM (highest concentration tested)) was 8.55. The “DSS induced colitis, overall effect” value ([3]; 3% DSS 7 days + 13 days recovery, 1 μg daily by oral gavage) was “attenuates DSS induced colitis”, the overall disease score ([3]; 3% DSS, 1 μg/day PO) was “improved the overall disease score” and the survival ([3]; 3% DSS, 1 μg/day PO) was “significantly improved survival”. The weight loss ([3]; 3% DSS, 1 μg/day PO) was “reduced weight loss”.
